Source: patent US10858312B1, “Gossypol isocyanate ester compounds with antileukemic activities and a method of preparing the same” (SHAANXI PANLONG PHARMACEUTICAL GROUP LIMITED BY SHARE LTD., priority 2020, dated 2020)

Columns and labels:
Format in all cases: cell-based
[1] = tested on: Jurkat (acute T-cell leukemia); experiment: CCK8 growth inhibition of leukemia cells, Jurkat; conditions: for IC50: Homo sapiens, Jurkat, 48 h, read-out: IC50 Jurkat
Experimental: (§1) Example 6: CCK8 Method to Detect the Growth Inhibitory Effect of Gossypol Isocyanate Ester Compounds on Three Kinds of Leukemia Cells
(§2) Cell lines: Jurkat (acute T-cell leukemia), HL-60 (human promyelocytic leukemia cells), K-562 (chronic myeloid leukemia), provided by the Affiliated Hospital of Guangdong Medical College. The cells were cultured in RPMI1640 medium containing 10% fetal bovine serum, penicillin […], streptomycin 100 mg/L, 37° C., 5% CO2, saturated humidity incubator, and the logarithmic growth phase cells were tested.
(§3) Test method: The logarithmic growth phase leukemia cell lines were taken, counted, and inoculated on a 96-well culture plate at a density of 1×10^5/mL, 100 μL per well. After 24 hours of cultivation, 100 μL of double-concentration medium containing different concentrations of compounds was added to each well. The medium containing the highest concentration of DMSO was used as the solvent control. After 48 hours of drug action, 20 μL of CCK8 color developing solution was added to each well, and the color was developed at 37° C. The OD450 was measured with a microplate reader until the absorbance was about 1.5. The inhibition rate was calculated using the formula: Inhibition Rate (%)=(1−Absorbance Value of Administration Group/Absorbance Value of Control Group)×100%
(§4) The half-inhibitory concentration of cells (IC50) was calculated by the Kou's method.

[2] = tested on: K-562 (chronic myeloid leukemia); experiment: CCK8 growth inhibition of leukemia cells, K-562; conditions: for IC50: Homo sapiens, K562, 48 h, read-out: IC50 K562
Experimental: as §1, §2, §3, §4

[3] = tested on: HL-60 (human promyelocytic leukemia cells); experiment: CCK8 growth inhibition of leukemia cells, HL-60; conditions: for IC50: Homo sapiens, HL-60, 48 h, read-out: IC50 HL-60
Experimental: as §1, §2, §3, §4

| SMILES | IC50 [1] | IC50 [2] | IC50 [3] | anti-leukemia activity (in words) ([1]; Jurkat cells, CCK8) | anti-leukemia activity (in words) ([2]; K562 cells, CCK8) | anti-leukemia activity (in words) ([3]; HL-60 cells, CCK8) |
| --- | --- | --- | --- | --- | --- | --- |
| Cc1cc2c(c(O)c1-c1c(C)cc3c(c1O)/C(=C/OC(=O)Nc1ccccc1)C(=O)C(O)=C3C(C)C)/C(=C/OC(=O)Nc1ccccc1)C(=O)C(O)=C2C(C)C [Compound 1, (1Z,1′Z)-(1,1′,6,6′-tetrahydroxy-5,5′-diisopropyl-3,3′-dimethyl-7,7′-dioxo-[2,2′-binaphthal-ene]-8,8′(7H,7′H)-diylidene)bis(methanylylidene) bis(phenylcarbamate)] | 18.3 µM | 37.1 µM | 31.7 µM |  |  |  |
| CCNC(=O)O/C=C1\C(=O)C(O)=C(C(C)C)c2cc(C)c(-c3c(C)cc4c(c3O)/C(=C/OC(=O)NCC)C(=O)C(O)=C4C(C)C)c(O)c21 [Compound 2, (1Z,1′Z)-(1,1′,6,6′-tetrahydroxy-5,5′-diisopropyl-3,3′-dimethyl-7,7′-dioxo-[2,2′-binaphtha-lene]-8,8′(7H,7′H)-diylidene)bis(methanylylidene) bis(ethylcarbamate)] | 68.2 µM | 49.1 µM | 92.2 µM |  |  |  |
| Cc1cc2c(c(O)c1-c1c(C)cc3c(c1O)/C(=C/OC(=O)Nc1ccc(N)cc1)C(=O)C(O)=C3C(C)C)/C(=C/OC(=O)Nc1ccc(N)cc1)C(=O)C(O)=C2C(C)C [Compound 3, ((8Z,8′Z)-1,1′,6,6′-tetrahydroxy-5,5′-diisopropyl-3,3′-dimethyl-7,7′-dioxo-[2,2′-binaphthalene]-8,8′(7H,7′H)-diylidene)bis(methaneylylidene) bis((4-aminophenyl)carbamate)] | 13 µM | 16.3 µM | 26.6 µM | active | active | active |
| Cc1cc2c(c(O)c1-c1c(C)cc3c(c1O)/C(=C/OC(=O)Nc1cccc4c(N)cccc14)C(=O)C(O)=C3C(C)C)/C(=C/OC(=O)Nc1cccc3c(N)cccc13)C(=O)C(O)=C2C(C)C [Compound 4, ((8Z,8′Z)-1,1′,6,6′-tetrahydroxy-5,5′-diisopropyl-3,3′-dimethyl-7,7′-dioxo-[2,2′-binaphthalene]-8,8′(7H,7′H)-diylidene)bis(methaneylylidene) bis((5-aminonaphthalen-1-yl)carbamate)] | 21.7 µM | 21.7 µM | 15.9 µM |  |  |  |
| Cc1cc(-c2ccc(NC(=O)O/C=C3\C(=O)C(O)=C(C(C)C)c4cc(C)c(-c5c(C)cc6c(c5O)/C(=C/OC(=O)Nc5ccc(-c7ccc(N)c(C)c7)cc5C)C(=O)C(O)=C6C(C)C)c(O)c43)c(C)c2)ccc1N [Compound 5, ((8Z,8′)-1,1′,6,6′-tetrahydroxy-5,5′-diisopropyl-3,3′-dimethyl-7,7′-dioxo-[2,2′-binaphthalene]-8,8′(7H,7′H)-diylidene)bis(methaneylylidene) bis((4′-amino-3,3′-dimethyl-[1,1′-biphenyl]-4-yl)carbamate)] | 32.6 µM | 48.8 µM | 28.4 µM |  |  |  |
